# Reference: patent US20170051149A1, “AZOARYLS AS REVERSIBLY MODULATABLE TUBULIN INHIBITORS” (ECOLE NORMALE SUPERIEURE DE LYON, priority 2014, published 2017)
# Experiments:
# HEK-293T cells = assay: MTT assay, light-dependent cell proliferation; type: cell-based; conditions: 72 h
# [1] = fluorescence spectrophotometry (excitation and emission spectra); type: physicochemical
# Experimental: Absorption spectra in cuvette (“UV-Vis”) were acquired on a Varian CaryScan 50 (1 cm, 100 μL or 1 mL volume) with Peltier cell temperature control unit maintained at 37° C., in PBS at pH˜7.4 containing a low percentage of cosolvent if needed (typically 2% MeCN or 5% DMSO). A ThorLabs Polychrome V monochromator with a fibre optic cable output directed into the cuvette was used to perform photoisomerisation studies by UV-Vis spectrophotometry although single LEDs of approximately 10-20 mW output, 15-20° cone angle, and 10-15 nm bandwidth FWHM, obtained commercially from Roithner Lasertechnik GmbH, were equally successful in providing repeatable monochromatic photoisomerisation. Separated spectra of trans and […] forms were acquired from the inline Diode Array Detector on the AGILENT 1260 SL coupled LC-MS system after HPLC separation. Fluorescence spectrophotometry (excitation and emission spectra) were acquired on a Varian CaryEclipse fluorescence spectrophotometer.
# Fluorescence imaging is commonly used to sensitively, conveniently and non-invasively determine the local concentration of fluorescent species in biological and medical settings. Considering I.25 as an example of a compound of the invention bearing a fluorescent reporter, it was considered desirable that its rhodamine moiety would allow fluorescence detection of I.25.
smiles,measurement,setting,value
"COc1ccc(N=Nc2cc(OC)c(OC)c(OC)c2)cc1O [I.1, 2-methoxy-5-((3,4,5-trimethoxyphenyl)diazenyl)phenol]",fold growth relative to cosolvent control (MTT),"HEK-293T cells; 100 nM, 390 nm, 0.35 s every 2 min",1.31
same,fold growth relative to cosolvent control (MTT),"HEK-293T cells; 100 nM, 390 nm, 0.35s then 490 nm, 3 s (rescue) every 2 min",1.26
same,fold growth relative to cosolvent control (MTT),"HEK-293T cells; 100 nM, 410 nm, 0.35 s every 2 min",1.19
same,fold growth relative to cosolvent control (MTT),"HEK-293T cells; 100 nM, 410 nm, 0.35 s then 505 nm, 3 s (rescue) every 2 min",1.29
same,fold growth relative to cosolvent control (MTT),"HEK-293T cells; 100 nM, 475 nm, 3 s every 2 min",1.11
same,fold growth relative to cosolvent control (MTT),"HEK-293T cells; 100 nM, 490 nm, 3 s every 2 min",1.10
same,fold growth relative to cosolvent control (MTT),"HEK-293T cells; 100 nM, 505 nm, 3 s every 2 min",1.22
same,fold growth relative to cosolvent control (MTT),"HEK-293T cells; 100 nM, 525 nm, 3 s every 2 min",1.12
same,fold growth relative to cosolvent control (MTT),"HEK-293T cells; 100 nM, Dark",1.29
same,fold growth relative to cosolvent control (MTT),"HEK-293T cells; 400 nM, 390 nm, 0.35 s every 2 min",0.67
same,fold growth relative to cosolvent control (MTT),"HEK-293T cells; 400 nM, 390 nm, 0.35s then 490 nm, 3 s (rescue) every 2 min",0.69
same,fold growth relative to cosolvent control (MTT),"HEK-293T cells; 400 nM, 410 nm, 0.35 s every 2 min",0.70
same,fold growth relative to cosolvent control (MTT),"HEK-293T cells; 400 nM, 410 nm, 0.35 s then 505 nm, 3 s (rescue) every 2 min",0.86
same,fold growth relative to cosolvent control (MTT),"HEK-293T cells; 400 nM, 475 nm, 3 s every 2 min",0.55
same,fold growth relative to cosolvent control (MTT),"HEK-293T cells; 400 nM, 490 nm, 3 s every 2 min",0.69
same,fold growth relative to cosolvent control (MTT),"HEK-293T cells; 400 nM, 505 nm, 3 s every 2 min",0.87
same,fold growth relative to cosolvent control (MTT),"HEK-293T cells; 400 nM, 525 nm, 3 s every 2 min",0.82
same,fold growth relative to cosolvent control (MTT),"HEK-293T cells; 400 nM, Dark",0.87
same,fold growth relative to cosolvent control (MTT),"HEK-293T cells; 800 nM, 390 nm, 0.35 s every 2 min",0.38
same,fold growth relative to cosolvent control (MTT),"HEK-293T cells; 800 nM, 390 nm, 0.35s then 490 nm, 3 s (rescue) every 2 min",0.33
same,fold growth relative to cosolvent control (MTT),"HEK-293T cells; 800 nM, 410 nm, 0.35 s every 2 min",0.51
same,fold growth relative to cosolvent control (MTT),"HEK-293T cells; 800 nM, 410 nm, 0.35 s then 505 nm, 3 s (rescue) every 2 min",0.67
same,fold growth relative to cosolvent control (MTT),"HEK-293T cells; 800 nM, 475 nm, 3 s every 2 min",0.37
same,fold growth relative to cosolvent control (MTT),"HEK-293T cells; 800 nM, 490 nm, 3 s every 2 min",0.43
same,fold growth relative to cosolvent control (MTT),"HEK-293T cells; 800 nM, 505 nm, 3 s every 2 min",0.92
same,fold growth relative to cosolvent control (MTT),"HEK-293T cells; 800 nM, 525 nm, 3 s every 2 min",1.00
same,fold growth relative to cosolvent control (MTT),"HEK-293T cells; 800 nM, Dark",0.95
same,fold growth relative to cosolvent control (MTT),"HEK-293T cells; 1.5 μM, 390 nm, 0.35 s every 2 min",0.22
same,fold growth relative to cosolvent control (MTT),"HEK-293T cells; 1.5 μM, 390 nm, 0.35s then 490 nm, 3 s (rescue) every 2 min",0.18
same,fold growth relative to cosolvent control (MTT),"HEK-293T cells; 1.5 μM, 410 nm, 0.35 s every 2 min",0.25
same,fold growth relative to cosolvent control (MTT),"HEK-293T cells; 1.5 μM, 410 nm, 0.35 s then 505 nm, 3 s (rescue) every 2 min",0.25
same,fold growth relative to cosolvent control (MTT),"HEK-293T cells; 1.5 μM, 475 nm, 3 s every 2 min",0.19
same,fold growth relative to cosolvent control (MTT),"HEK-293T cells; 1.5 μM, 490 nm, 3 s every 2 min",0.19
same,fold growth relative to cosolvent control (MTT),"HEK-293T cells; 1.5 μM, 505 nm, 3 s every 2 min",0.42
same,fold growth relative to cosolvent control (MTT),"HEK-293T cells; 1.5 μM, 525 nm, 3 s every 2 min",0.66
same,fold growth relative to cosolvent control (MTT),"HEK-293T cells; 1.5 μM, Dark",0.71
same,fold growth relative to cosolvent control (MTT),"HEK-293T cells; 3 μM, 390 nm, 0.35 s every 2 min",0.17
same,fold growth relative to cosolvent control (MTT),"HEK-293T cells; 3 μM, 390 nm, 0.35s then 490 nm, 3 s (rescue) every 2 min",0.14
same,fold growth relative to cosolvent control (MTT),"HEK-293T cells; 3 μM, 410 nm, 0.35 s every 2 min",0.18
same,fold growth relative to cosolvent control (MTT),"HEK-293T cells; 3 μM, 410 nm, 0.35 s then 505 nm, 3 s (rescue) every 2 min",0.22
same,fold growth relative to cosolvent control (MTT),"HEK-293T cells; 3 μM, 475 nm, 3 s every 2 min",0.15
same,fold growth relative to cosolvent control (MTT),"HEK-293T cells; 3 μM, 490 nm, 3 s every 2 min",0.20
same,fold growth relative to cosolvent control (MTT),"HEK-293T cells; 3 μM, 505 nm, 3 s every 2 min",0.27
same,fold growth relative to cosolvent control (MTT),"HEK-293T cells; 3 μM, 525 nm, 3 s every 2 min",0.64
same,fold growth relative to cosolvent control (MTT),"HEK-293T cells; 3 μM, Dark",0.66
same,fold growth relative to cosolvent control (MTT),"HEK-293T cells; 6 μM, 390 nm, 0.35 s every 2 min",0.29
same,fold growth relative to cosolvent control (MTT),"HEK-293T cells; 6 μM, 390 nm, 0.35s then 490 nm, 3 s (rescue) every 2 min",0.18
same,fold growth relative to cosolvent control (MTT),"HEK-293T cells; 6 μM, 410 nm, 0.35 s every 2 min",0.23
same,fold growth relative to cosolvent control (MTT),"HEK-293T cells; 6 μM, 410 nm, 0.35 s then 505 nm, 3 s (rescue) every 2 min",0.30
same,fold growth relative to cosolvent control (MTT),"HEK-293T cells; 6 μM, 475 nm, 3 s every 2 min",0.21
same,fold growth relative to cosolvent control (MTT),"HEK-293T cells; 6 μM, 490 nm, 3 s every 2 min",0.34
same,fold growth relative to cosolvent control (MTT),"HEK-293T cells; 6 μM, 505 nm, 3 s every 2 min",0.27
same,fold growth relative to cosolvent control (MTT),"HEK-293T cells; 6 μM, 525 nm, 3 s every 2 min",0.39
same,fold growth relative to cosolvent control (MTT),"HEK-293T cells; 6 μM, Dark",0.80
same,fold growth relative to cosolvent control (MTT),"HEK-293T cells; 15 μM, 390 nm, 0.35 s every 2 min",0.28
same,fold growth relative to cosolvent control (MTT),"HEK-293T cells; 15 μM, 390 nm, 0.35s then 490 nm, 3 s (rescue) every 2 min",0.21
same,fold growth relative to cosolvent control (MTT),"HEK-293T cells; 15 μM, 410 nm, 0.35 s every 2 min",0.23
same,fold growth relative to cosolvent control (MTT),"HEK-293T cells; 15 μM, 410 nm, 0.35 s then 505 nm, 3 s (rescue) every 2 min",0.24
same,fold growth relative to cosolvent control (MTT),"HEK-293T cells; 15 μM, 475 nm, 3 s every 2 min",0.17
same,fold growth relative to cosolvent control (MTT),"HEK-293T cells; 15 μM, 490 nm, 3 s every 2 min",0.31
same,fold growth relative to cosolvent control (MTT),"HEK-293T cells; 15 μM, 505 nm, 3 s every 2 min",0.20
same,fold growth relative to cosolvent control (MTT),"HEK-293T cells; 15 μM, 525 nm, 3 s every 2 min",0.29
same,fold growth relative to cosolvent control (MTT),"HEK-293T cells; 15 μM, Dark",0.87
"CCN(CC)c1ccc2c(-c3ccccc3C(=O)N3CCN(CCCOc4c(N=Nc5cc(OC)c(OC)c(OC)c5)ccc(OC)c4C)CC3)c3ccc(=[N+](CC)CC)cc-3oc2c1.CCN(CC)c1ccc2c(-c3ccccc3C(=O)N3CCN(CCCOc4c(N=Nc5cc(OC)c(OC)c(OC)c5)ccc(OC)c4C)CC3)c3ccc(=[N+](CC)CC)cc-3oc2c1.O=C[O-].O=C[O-] [I.25, N-(6-(diethylamino)-9-(2-(4-(3-(3-methoxy-2-methyl-6-((3,4,5-trimethoxyphenyl)diazenyl)phenoxy)propyl)piperazine-1-carbonyl)phenyl)-3H-xanthen-3-ylidene)-N-ethylethanaminium bis(formate) salt]",excitation wavelength giving maximum emission intensity,[1]; emission at 590 nm,570 nm
same,fluorescence emission maximum,"[1]; excited at 380 nm or 554 nm, 10 μM, 60:32:8 EtOH:PBS:MeCN, 25° C.",590 nm
